Patent US3968233A, “α-Amino-γ-butyrolactones as sedatives” (priority 1975, dated 1976)
Where a name gives a salt, the structure may show the parent alone.

Tests used:
[1] = assay type: in vivo, mouse; conditions: control experiments; 95-percent confidence limits
Experimental: This type of antagonism was evaluated in the mouse in three ways, namely: (1) protection from death from one hypodermic injection of strychnine: (2) evaluation of the LD50 of strychnine in mice both treated and untreated with AP-28, and (3) influence on the time required to cause animals to die by slow intravenous perfusion of strychnine. […] Groups of six mice were used. (2) increasing amounts of strychnine sulfate were injected hypodermically. In two experiments 200 or 400 mg/kg of intraperitoneal AP-28 were given 30 minutes prior to strychnine injection and the LD50 was calculated. The following results were obtained (95-percent confidence limits): […]

[2] = Influence on amphetamine-induced hypermobility; assay type: in vivo, mouse; conditions: d-amphetamine sulfate 5 mg/kg i.p. alone
Experimental: Six groups of 4 mice each were treated with 5 mg/kg d-amphetamine sulfate by intraperitoneal administration. Six groups of 4 animals each received the same dose of d-amphetamine sulfate plus 250 mg/kg of AP-28 intraperitoneally 15 minutes after d-amphetamine sulfate; six more groups of four animals each received saline solution and served as control animals. […] The number of times each animal crossed the light beam throughout the 10-minute test was noted.

[3] = Protective effect against electroshock (MES); conditions: phenobarbital Na 40 mg/kg i.p., 10 minutes before electroshock
[4] = Enhancement of the hypnotic effect of sodium pentobarbital; assay type: in vivo, mouse; conditions: sodium pentobarbital 40 mg/kg i.p. alone
Experimental: Forty mg/kg of sodium pentobarbital was injected intraperitoneally into mice and note was taken of animals losing the righting reflex and for how long. Other mice received a preliminary treatment with AP-28 at a dosage of 250 and 500 mg/kg, intraperitoneally, and thereafter sodium pentobarbital was given to them.

**Q.** With `O=C1C[C@@H]2OCC=C3CN4CC[C@]56c7ccccc7N1[C@H]5[C@H]2[C@H]3C[C@H]46` [Strychnine, strychnine sulfate] as the molecule, how does the LD50 of strychnine [1] read?
**A.** Its LD50 of strychnine is 0.83 (1.02-0.67) mg/kg.

**Q.** Which “Mean number of crossings (± SE) in 10 minutes” value [2] does the source give for `C[C@H](N)Cc1ccccc1` [d-amphetamine, d-amphetamine sulfate, reference compound] here?
**A.** The value was 657 ± 59.

**Q.** With `CCC1(c2ccccc2)C(=O)NC(=O)NC1=O` [Phenobarbital Na, Phenobarbital sodium, reference compound] as the molecule, how does the Number animals died [3] read?
**A.** Its Number animals died is 0/8.

**Q.** And the “Number animals with clonic convulsions” value ([3]; in parentheses number treated)?
**A.** Its value is 8(8).

**Q.** What about the “Number animals with tonic convulsions” value ([3]; in parentheses number treated) of the same molecule?
**A.** The value was 0(8).

**Q.** What does the source list for `CCCC(C)C1(CC)C(=O)NC(=O)NC1=O` (stereo not shown) [sodium pentobarbital, reference compound]?
**A.** Animals under hypnosis/treated [4]: 3/4; Duration of hypnosis in minutes (m ± SE) ([4]; zero assigned to animals not losing righting reflex): 3.25 ± 3.4 min
